In US10550155B2, “Anticancer peptides” (priority 2018, dated 2020):
Where a SMILES comes first, the peptide text is derived from it.

Tests used:
human erythrocytes = settings: cited from earlier work
[1] = system: Leishmania infantum promastigote and amastigote; settings: cited from earlier work
[2] = system: bacteria, yeasts, fungi, and protozoa; settings: cited from earlier work
[3] = system: MCF-7 human breast cancer cell line; experiment: MTT cytotoxicity assay, MCF-7 cells; format: cell-based; settings: MTT
Method: (§1) The cytotoxic as well as antiproliferative effect of peptides was determined using MTT [3-(4, 5-dimethylthiazol-2-yl)-2, 5-diphenyl tetrazolium bromide] colorimetric assay. MCF-7, NIH-3T3, HeLa and H460 cells were cultured and after confluency, cells were used to test the cytotoxicity by MTT assay. Briefly (3×10^4/mL) of MCF-7 and (2×10^4/mL) cells of NIH-3T3, HeLa and H460 were seeded in 96-wells plate and incubated at 37° C. in 5% CO2 for 24 h. The MCF-7 cells were then treated with different doses of peptides and re-incubated in 5% CO2 at 37° C. for 48 hours. […] Experiment was performed three times and all doses were repeated in triplicate and the calculations were done using formula for percent inhibition.

THP-1 monocytes = settings: cited from earlier work
[4] = system: DoHH2 cells (B-cell lymphoma); experiment: Alamar blue viability assay, DoHH2 cells; format: cell-based; settings: Alamar blue
Method: The viability of DoHH2 cells was determined by Alamar blue assay. Briefly 200 μl of 1×10^5 cells/ml were incubated with different concentrations of compounds for 24 hours. A one-tenth volume of Alamar blue was then added and the incubation continued for 4 hrs. Absorbance was read in spectrophotometer at wavelengths of 570 nm and 600 nm.

fibroblasts = settings: cited from earlier work
[5] = MTT cytotoxicity assay, 3T3 cells; format: cell-based, mouse; settings: mouse, Cytotoxicity IC50, 3T3
Method: as §1

HeLa cells = experiment: MTT cytotoxicity assay, HeLa cells; format: cell-based; settings: MTT
Method: as §1

[6] = system: THP-1-derived macrophages; settings: cited from earlier work
H460 cells = experiment: MTT cytotoxicity assay, H460 cells; format: cell-based; settings: MTT
Method: as §1

In the case of `CC[C@H](C)[C@H](NC(=O)CNC(=O)[C@H](CO)NC(=O)[C@H](CC(C)C)NC(=O)[C@@H](N)Cc1ccccc1)C(=O)N[C@H](C(=O)NCC(=O)N[C@@H](CCSC)C(=O)N[C@@H](CC(C)C)C(=O)NCC(=O)N[C@@H](CCCCN)C(=O)N[C@@H](CC(C)C)C(=O)N[C@@H](Cc1ccccc1)C(N)=O)C(C)C` [peptide 1, F-L-S-G-I-V-G-M-L-G-K-L-F, reference compound] (H-FLSGIVGMLGKLF-NH2), the “Cytotoxicity on human erythrocytes (literature)” value (human erythrocytes) is listed as “low cytotoxicity”, the “Antiparasitic activity (literature)” value [1] is listed as “antiparasitic activity” and the “Antimicrobial / antibacterial activity (literature)” value [2] is listed as “potent inhibitor”. The “Activity against MCF-7 cell line (in words)” value [3] was “active”, the IC50 ([3]; 48 hours, read-out: Cytotoxicity IC50, MCF-7) was 14.5 ± 0.57 µM and the “Cytotoxicity on THP-1 monocytes (literature)” value (THP-1 monocytes) was “low cytotoxicity”. For the same molecule, the “Activity against DoHH2 cell line (in words)” value [4] was “no cytotoxicity”, the IC50 ([4]; 24 hours, read-out: Cytotoxicity IC50, DoHH2) was over 100 µM and the “Cytotoxicity on fibroblasts (literature)” value (fibroblasts) was “no cytotoxicity”. For the same molecule, the IC50 [5] was 73.3 ± 0.07 µM, the “Activity against HeLa cell line (in words)” value (HeLa cells) was “active” and the IC50 (HeLa cells; 48 hours, read-out: Cytotoxicity IC50, HeLa) was 18.4 ± 0.92 µM. The “Cytotoxicity on THP-1-derived macrophages (literature)” value [6] was “low cytotoxicity”, the “Activity against H460 cell line (in words)” value (H460 cells) was “active” and the IC50 (H460 cells; 48 hours, read-out: Cytotoxicity IC50, H460) was 34.5 ± 1.5 µM.
